# Literature values as cited in patent publication US20260048172A1, “WOUND DRESSINGS” (ConvaTec Limited, priority 2023, published 2026).
substance,measurement,setting,value
citric acid [citric/citrate],pka (third),Ka = 0.0000004,pka = 6.4
same,pka (second),Ka = 0.0000200,pka = 4.7
same,pka (first),Ka = 0.0007943,pka = 3.1
